Experimental data as given in patent US20150231077A1, “AMINE PASSIVATED NANOPARTICLES FOR CANCER TREATMENT AND IMAGING” (THE CLEVELAND CLINIC FOUNDATION, priority 2014, published 2015).
Entries after “also recorded” stand apart in the source; their conditions may differ.

Tested on: human normal hematopoietic stem/progenitor cells (HSPCs)
Test: Normal HSPC growth curves
Type: cell-based
Details: 1, 2 and 5 nM
Method: In order to evaluate the efficacy of Au:MTX in vitro, a human AML cell line THP-1 and human normal hematopoietic stem/progenitor cells (HSPCs) were used. HSPCs were isolated from umbilical cord blood via a CD34+ magnetic cell sorting (CD34 MicroBead Kit #130-046-702, Miltenyl Biotec, Auburn, Calif.). THP-1 cells were cultured in Roswell Park Memorial Institute 1640 (RPMI, Life Technologies, Carlsbad, Calif.) with 10% fetal bovine serum (FBS, Life Technologies), and HSPCs were cultured in Iscove's Modified Dulbecco's Medium (IMDM, Life Technologies) with 10% FBS and cytokines (10 ng/mL of SCF, TPO, and FLT3; 5 ng/mL of IL-3 and IL-6, PeproTech, Rockey Hill, N.J.), respectively, using 24-well cell culture plates with 0.7 mL of culture media per well (at 37° C. with 5% CO2 and >95% humidity). Cell viability was confirmed to be >95% using cell viability analyzer (Vi-Cell, Beckman Coulter, Brea, Calif.) immediately before the experiments. Then the cells were treated with phosphate buffer saline (PBS, Life Technologies), MTX, aqueous solutions of equimolar Au:MTX, and/or equimolar Au:FOL (folic acid-passivated Au nanoparticles). Cell cultures were split two-fold after 72 hours by replenishing each well with fresh media. Cell density and viability were measured every 24 hours using the cell viability analyzer. […]
In the case of `CN(Cc1cnc2nc(N)nc(N)c2n1)c1ccc(C(=O)N[C@@H](CCC(=O)O)C(=O)O)cc1` [MTX, methotrexate], the HSPC growth is reported as “not significantly affected; also recorded: does not significantly affect”.

Tested on: human AML cell line THP-1
Test: THP-1 growth curves (cell density and viability)
Type: cell-based
Details: 1, 2 and 5 nM
Method: In order to evaluate the efficacy of Au:MTX in vitro, a human AML cell line THP-1 and human normal hematopoietic stem/progenitor cells (HSPCs) were used. HSPCs were isolated from umbilical cord blood via a CD34+ magnetic cell sorting (CD34 MicroBead Kit #130-046-702, Miltenyl Biotec, Auburn, Calif.). […] Cell density and viability were measured every 24 hours using the cell viability analyzer. […]
The inventors characterized Au:MTX as drug delivery vehicles and evaluated in vitro therapeutic effects. Au:MTX was purified via sets of centrifugal precipitations, and the Au-to-MTX molar ratio (drug loading onto Au nanoparticle) was measured by elemental analyses (carbon-hydrogen-nitrogen analysis, or CHN; and inductively coupled plasma mass spectrometry, or ICP-MS). […] Au-to-MTX molar ratio was determined as [Au]:[MTX]=9.8:1, i.e. one nanoparticle on average carried ˜75 MTX molecules (assuming ˜1.44 Å as atomic radius of Au and uniform surface coverage, as illustrated in FIG. 1(c)). […] Drug delivery by Au:MTX was evaluated using a human AML cell line THP-1. […] Au:FOL, with the diameter 2.6±1.1 nm measured by TEM, is structurally similar to Au:MTX and was therefore used as an “Au nanoparticle without active drug” control. […]
With `CN(Cc1cnc2nc(N)nc(N)c2n1)c1ccc(C(=O)N[C@@H](CCC(=O)O)C(=O)O)cc1` [MTX, methotrexate] the THP-1 cell growth was “dose-dependent THP-1 growth suppression”.

Tested on: not listed separately
Test: Formation and TEM size of amine-passivated Au nanoparticles
Type: physicochemical
Details: size of the Au nanoparticle formed with the named amine compound as ligand, same synthesis conditions
Method: In a typical synthesis of water soluble nanoparticles Au:MTX, 5 μmol of HAuCl4 and 25 μmol of MTX were dispersed with brief sonication in 2 mL methanol in a tri-neck 15 mL flask on ice water (0° C.) bath under Ar purge. After 1 hour of stirring at 700 rpm, 0.5 mL of freshly prepared 0.11 M NaBH4 on ice was added drop-wise at 1200 rpm. After ˜1 hour, stirring speed was reduced to 700 rpm and kept for additional ˜30 minutes.
The reacted solution was centrifuged at 4° C. at 16,100×g for 15 minutes twice, with the addition of 4:1 (volume) mixture of methanol and water, and ethanol respectively. This set of two step centrifugation was repeated at least 3 times, and then the precipitate was re-dispersed in water to obtain aqueous solutions. The aqueous solution was further purified using 3 k ultra centrifugal filter (Millipore, Billerica, Mass.). […]
For `Nc1ccn([C@@H]2O[C@H](COP(=O)(O)O)[C@@H](O)[C@H]2O)c(=O)n1` [cytidine monophosphate], the “nanoparticle (formation of monolayer-protected Au nanoparticles)” value (shortened to “nanoparticle”) was 4.5 ± 2.8 nm. For `Cc1cc2nc3c(=O)[nH]c(=O)nc-3n(C[C@H](O)[C@H](O)[C@H](O)COP(=O)(O)OP(=O)(O)OC[C@H]3O[C@@H](n4cnc5c(N)ncnc54)[C@H](O)[C@@H]3O)c2cc1C` [flavin adenine dinucleotide (FAD), flavin adenine dinucleotide], the “nanoparticle” value was 4.2 ± 1.6 nm. With `Cc1ncc(C[n+]2csc(CCOP(=O)(O)OP(=O)(O)O)c2C)c(N)n1` [thyamine pyrophosphate] the “nanoparticle” value was 3.1 ± 1.3 nm. For `Nc1nc2c(ncn2[C@@H]2O[C@H](COP(=O)(O)OP(=O)(O)OP(=O)(O)O)[C@@H](O)[C@H]2O)c(=O)[nH]1` [guanosine triphosphate], the “nanoparticle” value was 2.3 ± 0.7 nm. In the case of `Nc1nc2c(ncn2[C@@H]2O[C@H](COP(=O)(O)OP(=O)(O)O)[C@@H](O)[C@H]2O)c(=O)[nH]1` [guanosine diphosphate], the “nanoparticle” value is reported as 2.4 ± 1.0 nm. In the case of `COC(=O)CCC(NC(=O)c1ccc(N(C)Cc2cnc3nc(N)nc(N)c3n2)cc1)C(=O)OC` (stereo not drawn) [methotrexate dimethyl ester], the “nanoparticle” value is reported as 2.2 ± 0.6 nm. In the case of `CSCC[C@H](N)C(=O)O` [methionine], the “nanoparticle” value is reported as “did not form”. With `COc1cccc2c1C(=O)c1c(O)c3c(c(O)c1C2=O)C[C@@](O)(C(=O)CO)C[C@@H]3O[C@H]1C[C@H](N)[C@H](O)[C@H](C)O1` [doxorubicin, reference compound] the “nanoparticle” value was 3.3 ± 1.2 nm. For `Cc1ncc(C[n+]2csc(CCO)c2C)c(N)n1` [thiamine], the “nanoparticle” value was “did not form”. With `Nc1nc2c(ncn2[C@@H]2O[C@H](CO)[C@@H](O)[C@H]2O)c(=O)[nH]1` [guanosine] the “nanoparticle” value was 2.7 ± 1.6 nm. With `Nc1nc2c(ncn2[C@@H]2O[C@H](COP(=O)(O)O)[C@@H](O)[C@H]2O)c(=O)[nH]1` [guanosine monophosphate] the “nanoparticle” value was 2.6 ± 1.0 nm. With `Nc1nc2ncc(CNc3ccc(C(=O)N[C@@H](CCC(=O)O)C(=O)O)cc3)nc2c(=O)[nH]1` [folic acid] the “nanoparticle” value was 2.6 ± 1.1 nm. For `NCCc1ccc(O)c(O)c1` [dopamine, reference compound], the “nanoparticle” value was “did not form”. With `NCCCC[C@H](N)C(=O)O` [lysine] the “nanoparticle” value was “did not form”. With `Nc1ncnc2c1ncn2[C@H]1C[C@H](O)[C@@H](CO)O1` [deoxyadenosine] the “nanoparticle” value was “did not form”. With `CN(Cc1cnc2nc(N)nc(N)c2n1)c1ccc(C(=O)N[C@@H](CCC(=O)O)C(=O)O)cc1` [MTX, methotrexate] the “nanoparticle” value was 2.6 ± 0.7 nm. In the case of `Nc1ncnc2c1ncn2[C@@H]1O[C@H](COP(=O)(O)OP(=O)(O)OP(=O)(O)O)[C@@H](O)[C@H]1O` [adenosine triphosphate], the “nanoparticle” value is reported as 2.1 ± 0.7 nm. With `Nc1ccn([C@@H]2O[C@H](COP(=O)(O)OP(=O)(O)OP(=O)(O)O)[C@@H](O)[C@H]2O)c(=O)n1` [cytidine triphosphate] the “nanoparticle” value was 2.6 ± 0.9 nm. For `Nc1ncnc2c1ncn2[C@@H]1O[C@H](CO)[C@@H](O)[C@H]1O` [adenosine], the “nanoparticle” value was “did not form”. In the case of `Nc1nc2c(ncn2[C@H]2C[C@H](O)[C@@H](CO)O2)c(=O)[nH]1` [deoxyguanosine], the “nanoparticle” value is reported as “did not form”. With `Nc1ncnc2c1ncn2[C@@H]1O[C@H](COP(=O)(O)O)[C@@H](O)[C@H]1O` [adenosine monophosphate] the “nanoparticle” value was “did not form”. For `Nc1ccn([C@@H]2O[C@H](COP(=O)(O)OP(=O)(O)O)[C@@H](O)[C@H]2O)c(=O)n1` [cytidine diphosphate], the “nanoparticle” value was 2.5 ± 0.8 nm. In the case of `Nc1ccn([C@H]2C[C@H](O)[C@@H](CO)O2)c(=O)n1` [deoxycytidine], the “nanoparticle” value is reported as “did not form”. In the case of `[H]/N=C(/N)N[C@H]1[C@H](O)[C@@H](O)[C@H](O[C@@H]2O[C@@H](C)[C@](O)(C=O)[C@H]2O[C@@H]2O[C@@H](CO)[C@H](O)[C@@H](O)[C@@H]2NC)[C@@H](N/C(N)=N\[H])[C@@H]1O` [streptomycin, reference compound], the “nanoparticle” value is reported as 2.5 ± 1.2 nm. For `Nc1ncnc2c1ncn2[C@@H]1O[C@H](COP(=O)(O)OP(=O)(O)O)[C@@H](O)[C@H]1O` [adenosine diphosphate], the “nanoparticle” value was 2.3 ± 0.7 nm.
